pIC50: −log10 of the molar value. Like-named read-outs stand apart in the source and are kept apart here.
Tests used:
Type in all cases: cell-based
[1] = tested on: isogenic LN229 gliobastoma cells; assay: Anti-cancer assay against isogenic LN229 cell line set, maximum 200 μM (Example 46); conditions: concentration up to 200 μM
Protocol: Isogenic LN229 gliobastoma cells were maintained in Dulbecco's Modified Eagle Medium (DMEM) supplemented with 10% fetal bovine serum, 1% Penicillin/Streptomycin, and 0.1% Fungin. DAY 0: Cells were plated into sterile 96-well plates (Corning Costar 96-well) at a concentration of 500 cells/well using a Multichannel pipettor. Then, assay plates were incubated overnight in a 37° C. 5% CO2 incubator. DAY 1: Compounds were prepared as 50 mM stocks in dimethyl sulfoxide (DMSO) and stored protected from light at room temperature (RT) until use. Prior to compound addition, a two-fold serial dilution of compound stock solutions was performed in DMSO from 30 mM to 0.117 mM in a 96-well Master plate. Vehicle control wells contained DMSO. 97 μL of media was added to each well of a new 96-well plate (Daughter plate) and 3 μL of drug solution from Master plate was added to corresponding wells in the Daughter plate resulting in a 3× plate. Three replicate dilution curves of each compound were run on each assay plate. […]
Assay plates were incubated for 120 hours at 37° C. in a humidified 5% CO2 incubator. DAY 5: Following incubation, cells were fixed with 4% paraformaldehyde and stained with Hoechst dye for nuclei visualization. […] Images were acquired on a BioTek Cytation 5 Cell Imaging Multimode Reader and quantified using Cell Profiler image analysis software. […]

[2] = tested on: LN229 gliobastoma cells MGMT+/MMR+; assay: Anti-cancer assay, isogenic LN229 cells, nuclei count (Example 43); conditions: Homo sapiens, read-out: MGMT+ MMR+ Activity
Text: (§1) Cytotoxicity of the compounds may be measured in short-term cell viability assays against four isogenic LN229 glioblastoma cell lines engineered to be proficient or deficient in MGMT and/or MMR activity by using short hairpin RNAs (shRNAs) targeting MSH2. This approach allows for determination of the relationship between MGMT status, MMR status, and compound activity. LN229 cells are maintained in Dulbecco's Modified Eagle Medium (DMEM) supplemented with 10% fetal bovine serum, 1% Penicillin/Streptomycin, and 0.1% Fungin. DAY 0: Cells are plated into sterile 96-well plates (Corning Costar 96-well) at a concentration of 500 cells/well using a Multichannel pipettor. Then, assay plates are incubated overnight in a 37° C. 5% CO2 incubator. DAY 1: Compounds are prepared as 50 mM stocks in dimethyl sulfoxide (DMSO) and stored protected from light at room temperature (RT) until use. Prior to compound addition, a two-fold serial dilution of compound stock solutions is performed in DMSO from 30 mM to 0.117 mM in a 96-well Master plate. Vehicle control wells contain DMSO. 97 μL of media is added to each well of a new 96-well plate (Daughter plate) and 3 μL of drug solution from Master plate is added to corresponding wells in the Daughter plate resulting in a 3× plate. Three replicate dilution curves of each compound are run on each assay plate. The final concentration of compounds ranges from 300 μM to 1.171 μM (9-point, 2-fold dilution dose response curve), and the final DMSO concentration is 1%.
(§2) Assay plates are incubated for 120 hours at 37° C. in a humidified 5% CO2 incubator. DAY 5: Following incubation, cells are fixed with 4% paraformaldehyde and stained with Hoechst dye for nuclei visualization. Fixation, staining and washing is performed by using a Thermo Scientific Multidrop Combi. Images are acquired on a BioTek Cytation 5 Cell Imaging Multimode Reader and quantified using Cell Profiler image analysis software. Raw cell count data for test compounds are normalized to percent viability relative to the DMSO vehicle control.
(§3) Isogenic LN229 gliobastoma cells were maintained in Dulbecco's Modified Eagle Medium (DMEM) supplemented with 10% fetal bovine serum, 1% Penicillin/Streptomycin, and 0.1% Fungin. DAY 0: Cells were plated into sterile 96-well plates (Corning Costar 96-well) at a concentration of 500 cells/well using a Multichannel pipettor. Then, assay plates were incubated overnight in a 37° C. 5% CO2 incubator. DAY 1: Compounds were prepared as 50 mM stocks in dimethyl sulfoxide (DMSO) and stored protected from light at room temperature (RT) until use. Prior to compound addition, a two-fold serial dilution of compound stock solutions was performed in DMSO from 30 mM to 0.117 mM in a 96-well Master plate. Vehicle control wells contained DMSO. 97 μL of media was added to each well of a new 96-well plate (Daughter plate) and 3 μL of drug solution from Master plate was added to corresponding wells in the Daughter plate resulting in a 3× plate. Three replicate dilution curves of each compound were run on each assay plate. The final concentration of compounds ranged from 300 μM to 1.171 μM (9-point, 2-fold dilution dose response curve), and the final DMSO concentration was 1%.
as §2, with “plates were” for “plates are”, “cells were” for “cells are”, “washing was” for “washing is”, “Images were” for “Images are”, “compounds were” for “compounds are”

[3] = tested on: LN229 gliobastoma cells MGMT+/MMR−; assay: as above; conditions: Homo sapiens, read-out: MGMT+ MMR− Activity
Text: as §1, §2, §3
as §2, with “plates were” for “plates are”, “cells were” for “cells are”, “washing was” for “washing is”, “Images were” for “Images are”, “compounds were” for “compounds are”

[4] = tested on: LN229 gliobastoma cells MGMT−/MMR+; assay: Anti-cancer assay, isogenic LN229 cells, nuclei count (Examples 43, 46); conditions: Homo sapiens, read-out: MGMT− MMR+ Activity
Text: as §1, §2, §3
as §2, with “plates were” for “plates are”, “cells were” for “cells are”, “washing was” for “washing is”, “Images were” for “Images are”, “compounds were” for “compounds are”, “control. […]” for “control.”

[5] = tested on: LN229 gliobastoma cells MGMT−/MMR−; assay: as above; conditions: Homo sapiens, read-out: MGMT− MMR− Activity
Text: as §1, §2, §3
as §2, with “plates were” for “plates are”, “cells were” for “cells are”, “washing was” for “washing is”, “Images were” for “Images are”, “compounds were” for “compounds are”, “control. […]” for “control.”

[6] = LN-229, LN229 MGMT+/MMR+, 120 hours
[7] = LN-229, LN229 MGMT+/MMR−, 120 hours
[8] = LN-229, LN229 MGMT−/MMR+, 120 hours
[9] = LN-229, LN229 MGMT−/MMR−, 120 hours

For `COCCn1nnc2c(C(N)=O)ncn2c1=O` [Compound A2], the “anti-cancer activity against LN229 isogenic cell line set” value [1] was “no detectable anti-cancer activity”.
Work on `Cc1cnc(-c2ncn3c(=O)n(CCOC(F)(F)F)nnc23)o1` [II-3, 8-(5-Methyloxazol-2-yl)-3-(2-(trifluoromethoxy)ethyl) imidazo[5,1-d][1,2,3,5]tetrazin-4(3H)-one] yielded a pIC50 [2, 6] of 4.30 to 4.70, a pIC50 [3, 7] of 4.30 to 4.70 and a pIC50 [4, 8] of 4.30 to 4.70. The pIC50 [5, 9] was 4.30 to 4.70.
`O=c1n(CCOC(F)(F)F)nnc2c(-c3nc4ccccc4o3)ncn12` [II-4, 8-(benzo[d]oxazol-2-yl)-3-(2-(trifluoromethoxy)ethyl) imidazo[5,1-d][1,2,3,5]tetrazin-4(3H)-one] gave a pIC50 [2, 6] greater than 4.70, a pIC50 [3, 7] greater than 4.70 and a pIC50 [4, 8] of 4.30 to 4.70. For the same compound, the pIC50 [5, 9] was greater than 4.70.
Compound `O=c1n(CCOC(F)(F)F)nnc2c(-c3ccccc3)ncn12` [II-5, 8-Phenyl-3-(2-(trifluoromethoxy)ethyl)imidazo[5,1-d][1,2,3,5]tetrazin-4(3H)-one] has a pIC50 [2, 6] greater than 4.70, a pIC50 [3, 7] greater than 4.70 and a pIC50 [4, 8] greater than 4.70. It also gave a pIC50 [5, 9] of 4.30 to 4.70.
With `Cc1cnc(-c2ncn3c(=O)n(CCOC(F)(F)F)nnc23)s1` [II-6, 8-(5-Methylthiazol-2-yl)-3-(2-(trifluoromethoxy)ethyl)imidazo[5,1-d][1,2,3,5]tetrazin-4(3H)-one] the pIC50 [2, 6] was greater than 4.70, the pIC50 [3, 7] was greater than 4.70 and the pIC50 [4, 8] was 4.30 to 4.70. For the same compound, the pIC50 [5, 9] was greater than 4.70.
With `O=NN(CCOC(F)(F)F)C(=O)NC1CCCCC1` [IV-1, 3-Cyclohexyl-1-nitroso-1-(2-(trifluoromethoxy)ethyl)urea] the pIC50 ([2]; LN-229, 120 h) was 4.30 to 4.70, the pIC50 ([3]; LN-229, 120 h) was 4.30 to 4.70 and the pIC50 ([4]; LN-229, 120 h) was 4.30 to 4.70. It also gave a pIC50 ([5]; LN-229, 120 h) of 4.30 to 4.70.
`O=NN(CCOC(F)(F)F)C(=O)NCCOC(F)(F)F` [IV-2, 1-Nitroso-1,3-bis(2-(trifluoromethoxy)ethyl)urea] showed a pIC50 ([2]; LN-229, 120 h) of less than 4.00, a pIC50 ([3]; LN-229, 120 h) of less than 4.00 and a pIC50 ([4]; LN-229, 120 h) of 4.00 to 4.30. It also gave a pIC50 ([5]; LN-229, 120 h) of 4.30 to 4.70.
